Results reported in ChEMBL document CHEMBL1153761, “Bisnicalaterine A, a vobasine-vobasine bisindole alkaloid from Hunteria zeylanica” (J Nat Prod, 2009).
Values after ≈ are worked out from the molar mass of the structure shown.

Legend:
Type in all cases: functional, cell-based
[1] = system: HL-60; assay: Cytotoxicity against human HL60 cells after 48 hrs by MTT assay; conditions: HL-60, 48 h
[2] = system: RPMI-8226; assay: Cytotoxicity against human RPMI8226 cells after 48 hrs by MTT assay; conditions: RPMI-8226, 48 h
[3] = system: NCI-H226; assay: Cytotoxicity against human NCI-H226 cells after 48 hrs by MTT assay; conditions: NCI-H226, 48 h
[4] = system: HCT-116; assay: Cytotoxicity against human HCT116 cells after 48 hrs by MTT assay; conditions: HCT-116, 48 h
[5] = system: MCF7; assay: Cytotoxicity against human MCF7 cells after 48 hrs by MTT assay; conditions: MCF7, 48 h

Q: `C/C=C1/CN(C)[C@H]2Cc3c([nH]c4ccccc34)[C@H](n3c4c(c5ccccc53)C[C@H]3[C@@H](C(=O)OC)[C@H](C[C@H]4O)/C(=C\C)CN3C)C[C@H]1[C@@H]2C(=O)OC` [BISNICALATERINE A] was tested. Which IC50 [1] did it give?
A: Its IC50 is 16.2 µg/mL (≈ 23.4 µM).

Q: What about the IC50 [2] of the same compound?
A: Its IC50 is 31.3 µg/mL (≈ 45.3 µM).

Q: What about the IC50 [3] of the same compound?
A: Its IC50 is 28.1 µg/mL (≈ 40.7 µM).

Q: What about the IC50 [4] of the same compound?
A: Its IC50 is 21.9 µg/mL (≈ 31.7 µM).

Q: What about the IC50 [5] of the same compound?
A: The IC50 was 38 µg/mL (≈ 55 µM).
